Measurements as given in patent publication US9192675B2, “Dry powder inhaler and system for drug delivery” (MannKind Corporation, priority 2008, dated 2015).

Assay: Solubility of FDKP as a function of pH
Format: physicochemical
From the text: These properties allow FDKP to crystallize under acidic conditions and the crystals self-assemble to form particles. The particles dissolve readily under physiological conditions where the pH is neutral. As noted, microparticles having a diameter of between about 0.5 and about 10 microns can reach the lungs, successfully passing most of the natural barriers. Particles in this size range can be readily prepared from FDKP.

Which solubility (in acid) does the source give for O=C(O)/C=C/C(=O)NCCCCC1NC(=O)C(CCCCNC(=O)/C=C/C(=O)O)NC1=O (centres unmarked) [FDKP, bis-3,6-(N-fumaryl-4-aminobutyl)-2,5-diketopiperazine] here?
The solubility was “low solubility in acid”.

And the solubility (neutral or basic pH)?
The solubility was “readily soluble at neutral or basic pH”.
